Laboratory results published in PMC12052975, “A key residue of the extracellular gate provides quality control contributing to ABCG substrate specificity” (Nature Communications, 2025).
Where a chain is given by its changes, count along the chain named.

What was measured:
Format in all cases: cell-based
ABCG36/PDR8/PEN3 [1] = biological target: T1, ABCG36/PDR8/PEN3 (Arabidopsis thaliana, UniProt Q9XIE2); assay: radiolabel export from transfected N. benthamiana protoplasts; also stimulates ATPase in microsomes; specific binding to Arabidopsis microsomes; conditions: labelled compound; export 25 °C, 15 min; ATPase with 50 μM compound at pH 9.0; binding at 10 nM
T1 construct: full length, 35S:ABCG36-GFP (GFP tag kept), Agrobacterium-transfected Nicotiana benthamiana mesophyll protoplasts or microsomes; full-size PDR-type ABC transporter
T1 sequence (Q9XIE2 1-1469): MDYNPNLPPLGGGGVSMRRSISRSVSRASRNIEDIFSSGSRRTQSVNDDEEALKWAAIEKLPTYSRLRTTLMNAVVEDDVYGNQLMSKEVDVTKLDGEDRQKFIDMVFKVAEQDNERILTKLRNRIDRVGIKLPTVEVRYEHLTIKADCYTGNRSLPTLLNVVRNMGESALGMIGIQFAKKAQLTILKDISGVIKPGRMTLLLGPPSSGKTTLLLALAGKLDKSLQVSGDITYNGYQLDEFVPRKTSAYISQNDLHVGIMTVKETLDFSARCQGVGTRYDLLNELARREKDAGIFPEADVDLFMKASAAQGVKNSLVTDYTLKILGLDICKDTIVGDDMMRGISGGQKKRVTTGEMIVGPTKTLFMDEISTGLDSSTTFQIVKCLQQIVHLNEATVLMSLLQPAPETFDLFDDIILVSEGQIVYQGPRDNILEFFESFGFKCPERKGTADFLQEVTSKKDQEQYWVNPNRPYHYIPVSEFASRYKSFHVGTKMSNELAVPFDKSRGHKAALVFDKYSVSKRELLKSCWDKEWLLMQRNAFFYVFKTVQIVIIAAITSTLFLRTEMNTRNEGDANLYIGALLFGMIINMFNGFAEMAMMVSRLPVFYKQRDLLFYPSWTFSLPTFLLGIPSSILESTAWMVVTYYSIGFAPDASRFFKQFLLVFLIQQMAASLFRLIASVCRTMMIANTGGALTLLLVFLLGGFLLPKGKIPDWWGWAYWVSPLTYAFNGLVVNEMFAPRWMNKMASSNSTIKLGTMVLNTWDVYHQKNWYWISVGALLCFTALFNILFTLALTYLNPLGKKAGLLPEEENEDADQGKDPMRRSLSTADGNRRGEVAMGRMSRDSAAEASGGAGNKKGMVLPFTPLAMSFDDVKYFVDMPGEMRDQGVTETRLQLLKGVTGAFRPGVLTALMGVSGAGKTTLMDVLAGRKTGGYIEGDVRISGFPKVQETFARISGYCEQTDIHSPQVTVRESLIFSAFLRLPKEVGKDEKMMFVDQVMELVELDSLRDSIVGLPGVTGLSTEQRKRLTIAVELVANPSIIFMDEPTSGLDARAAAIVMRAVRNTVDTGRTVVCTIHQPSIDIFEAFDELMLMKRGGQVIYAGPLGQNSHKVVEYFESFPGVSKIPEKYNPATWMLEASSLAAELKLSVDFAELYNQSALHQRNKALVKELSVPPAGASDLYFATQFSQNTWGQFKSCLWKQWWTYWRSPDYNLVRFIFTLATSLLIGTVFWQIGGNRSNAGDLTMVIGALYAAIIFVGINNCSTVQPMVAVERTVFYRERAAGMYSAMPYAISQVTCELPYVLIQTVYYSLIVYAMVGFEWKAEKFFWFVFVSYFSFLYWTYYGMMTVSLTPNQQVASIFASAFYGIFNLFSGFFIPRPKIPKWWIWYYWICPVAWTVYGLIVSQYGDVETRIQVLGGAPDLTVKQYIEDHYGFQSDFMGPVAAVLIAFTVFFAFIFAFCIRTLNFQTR

ABCG36/PDR8/PEN3 [2] = biological target: T2, ABCG36/PDR8/PEN3 (Arabidopsis thaliana, UniProt Q9XIE2, L704F); assay: radiolabel export from transfected N. benthamiana protoplasts; also stimulates ATPase in microsomes; conditions: labelled compound; export 25 °C, 15 min; ATPase with 50 μM compound at pH 9.0
T2 construct: full length, 35S:ABCG36-GFP (GFP tag kept), Agrobacterium-transfected Nicotiana benthamiana mesophyll protoplasts or microsomes; full-size PDR-type ABC transporter
T2 sequence (Q9XIE2 1-1469 L704F): T1 sequence (Q9XIE2 1-1469) with L704F

ABCG36/PDR8/PEN3 [3] = biological target: T3, ABCG36/PDR8/PEN3 (Arabidopsis thaliana, UniProt Q9XIE2, L704S); assay: radiolabel export from transfected N. benthamiana protoplasts; conditions: labelled compound; export 25 °C, 15 min
T3 construct: full length, 35S:ABCG36-GFP (GFP tag kept), Agrobacterium-transfected Nicotiana benthamiana mesophyll protoplasts or microsomes; full-size PDR-type ABC transporter
T3 sequence (Q9XIE2 1-1469 L704S): T1 sequence (Q9XIE2 1-1469) with L704S

Structure (SMILES) | radiolabel export from transfected N. benthamiana protoplasts; also stimulates A (ABCG36/PDR8/PEN3 [1]) | radiolabel export from transfected N. benthamiana protoplasts; also stimulates A (ABCG36/PDR8/PEN3 [2]) | radiolabel export from transfected N. benthamiana protoplasts (ABCG36/PDR8/PEN3 [3])
c1ccc2c(-c3nccs3)c[nH]c2c1 [CLX, 3-thiazol-2-yl-indole] | stimulated by its substrates (IBA and CLX) but not by non-transported indolic compounds | – | –
O=C(O)CCCc1c[nH]c2ccccc12 [IBA, indole-3-butyric acid] | stimulated by its substrates (IBA and CLX) but not by non-transported indolic compounds | the L704F (abcg36-5) variant had no effect on ABCG36-mediated IBA export | –
O=C(O)Cc1c[nH]c2ccccc12 [IAA] | – | – | gain-of-IAA transport for polar but uncharged serine
